In paper PMC9936538, “Structure–Activity Relationship of N-Ethyl-Hexedrone Analogues: Role of the α-Carbon Side-Chain Length in the Mechanism of Action, Cytotoxicity, and Behavioral Effects in Mice” (ACS Chemical Neuroscience, 2023):

Key:
Swiss CD-1 mice = assay: Conditioned place preference (CPP); assay type: in vivo; settings: 10 mg/kg i.p.
Description: Male Swiss CD-1 mice (Janvier, Le Genest, France) weighing 30–35 g (6–8 weeks old), housed in temperature-controlled conditions (22 ± 1 °C) under a 12 h light/dark cycle and with free access to food and drinking water (standard laboratory diet, Panlab SL, Barcelona, Spain), were randomly assigned to an experimental group. Efforts were made to minimize animal use and suffering.
The potential of the studied compounds to induce reward was determined using a place conditioning paradigm, as described.[6] For this experiment, an apparatus with two distinct compartments, with differences in tactile and visual cues, communicated by a central corridor, has been used. In brief, CPP was performed in three phases: preconditioning test, conditioning, and postconditioning test. During the preconditioning phase (day 0), mice were placed in the middle of the corridor and had free access to both compartments for 15 min. The time spent in each compartment was recorded and monitored using a specific tracking software (Smart 3.0 Panlab, Barcelona, Spain). […] In the alternative session, mice received a saline i.p. injection and were placed for 20 min in the other compartment. Mice in the control group received a saline injection in every session. The compartment and session in which mice received the drug were randomized. On the test day (postconditioning phase), the same conditions as in the preconditioning phase were applied. A preference score was calculated as the difference between the time spent in the drug-paired compartment in the postconditioning test minus the time spent in the preconditioning phase.

hSERT [1] = target: T1, hSERT (Homo sapiens, UniProt P31645); assay: Transporter binding, [3H]imipramine binding at hSERT (HEK293 membranes); settings: membranes of transfected HEK293 cells; mean ± SEM of four independent experiments; read-out: [3H]imipramine binding at hSERT, Ki
T1 construct: expressed in transfected cells; host or cells: HEK293
T1 sequence (P31645 whole entry): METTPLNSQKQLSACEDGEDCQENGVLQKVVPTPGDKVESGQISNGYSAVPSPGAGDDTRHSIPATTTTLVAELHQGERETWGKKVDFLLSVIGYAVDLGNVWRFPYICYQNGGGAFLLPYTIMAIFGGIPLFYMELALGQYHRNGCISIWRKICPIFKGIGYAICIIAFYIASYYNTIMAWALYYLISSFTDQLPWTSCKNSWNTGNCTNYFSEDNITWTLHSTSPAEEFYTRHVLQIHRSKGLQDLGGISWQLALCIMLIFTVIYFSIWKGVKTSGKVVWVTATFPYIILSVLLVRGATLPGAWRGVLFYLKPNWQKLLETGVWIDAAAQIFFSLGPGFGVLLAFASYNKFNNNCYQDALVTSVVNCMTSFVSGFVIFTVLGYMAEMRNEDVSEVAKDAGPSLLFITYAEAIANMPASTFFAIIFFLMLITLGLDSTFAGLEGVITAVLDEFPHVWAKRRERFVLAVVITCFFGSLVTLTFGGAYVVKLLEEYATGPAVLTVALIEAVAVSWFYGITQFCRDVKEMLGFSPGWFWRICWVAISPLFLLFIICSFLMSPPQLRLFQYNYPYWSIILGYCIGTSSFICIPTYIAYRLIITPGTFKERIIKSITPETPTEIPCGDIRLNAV
Description: (§1) For membrane preparation, cells were harvested from 80 to 90% confluent dishes. HEK293 cells were washed with ice-cold phosphate-buffered saline (PBS), mechanically detached from the dish using a plastic scraper, and pelleted by centrifugation (400g for 10 min at 4 °C). The pellet was resuspended in HME buffer (20 mM HEPES NaOH, 1 mM EDTA, 2 mM MgCl2; pH 7.4), subjected to two freeze–thaw cycles in liquid nitrogen and homogenized through sonication at 4 °C. Membranes were then collected by centrifugation (40,000g for 30 min at 4 °C) and resuspended in an appropriate volume of HME buffer. The different membrane preparations aliquots were kept at −80 °C. Protein concentration was determined using the Bio-Rad Protein Reagent (Bio-Rad Laboratories, Hercules, CA).
(§2) Binding assays were performed as described.[6] […] This nonspecific binding also allows subtracting from the total binding values of the binding to other components such as membrane lipids or microfiber filters. Incubation was performed for 1 h at 22 °C. Binding reactions are stopped by rapid filtration of the membranes through GF/C glass microfiber filters presoaked with 0.5% polyethyleneimine and rapid washing with ice-cold wash buffer (120 mM NaCl, 2 mM MgCl2, 10 mM Tris, and 100 μM ZnCl2 for hDAT, and […], 2 mM MgCl2, and 10 mM Tris, for hSERT). Thereafter, the filters are placed into vials, a scintillation cocktail is added and trapped radioactivity is quantified by liquid scintillation counting. Specific binding of each drug to the transporter was defined as the difference between total binding (binding buffer in absence of the drug) and nonspecific binding. For each cathinone, four independent experiments carried out on duplicates were performed.
(§3) For in vitro assays, data were normalized with 100% defined as the mean of the technical replicates in the control group and expressed as mean ± SEM. Nonlinear regression was used to fit the different competition curves. Data were plotted and best fitted to a sigmoidal dose–response curve from which an IC50 or LC50 value was obtained. Transporter ratios were calculated as (1/DAT IC50: 1/SERT IC50). […] The Cheng–Prusoff equation was used to calculate Ki (affinity): Ki = EC50/(1 + [radioligand concentration/Kd]).[65] The sample size for behavioral experiments was determined using GPower software. One-way or two-way ANOVA, and subsequent Tukey’s posthoc test, conducted only if F was significant, was used to determine the effects of cathinones on cytotoxicity, HLA, OF, and CPP experiments. The α error probability was set at 0.05 (p < 0.05). The exact size group for the behavioral experiments is shown in the corresponding figure legends. All statistic calculations were carried out using GraphPad Prism (GraphPad software, San Diego, CA, USA).

hDAT [2] = target: T2, hDAT (Homo sapiens, UniProt Q01959); assay: Monoamine uptake inhibition, [3H]MPP+ uptake at hDAT in transfected HEK293 cells; assay type: cell-based
T2 construct: expressed in transfected cells; host or cells: HEK293
T2 sequence (Q01959 whole entry): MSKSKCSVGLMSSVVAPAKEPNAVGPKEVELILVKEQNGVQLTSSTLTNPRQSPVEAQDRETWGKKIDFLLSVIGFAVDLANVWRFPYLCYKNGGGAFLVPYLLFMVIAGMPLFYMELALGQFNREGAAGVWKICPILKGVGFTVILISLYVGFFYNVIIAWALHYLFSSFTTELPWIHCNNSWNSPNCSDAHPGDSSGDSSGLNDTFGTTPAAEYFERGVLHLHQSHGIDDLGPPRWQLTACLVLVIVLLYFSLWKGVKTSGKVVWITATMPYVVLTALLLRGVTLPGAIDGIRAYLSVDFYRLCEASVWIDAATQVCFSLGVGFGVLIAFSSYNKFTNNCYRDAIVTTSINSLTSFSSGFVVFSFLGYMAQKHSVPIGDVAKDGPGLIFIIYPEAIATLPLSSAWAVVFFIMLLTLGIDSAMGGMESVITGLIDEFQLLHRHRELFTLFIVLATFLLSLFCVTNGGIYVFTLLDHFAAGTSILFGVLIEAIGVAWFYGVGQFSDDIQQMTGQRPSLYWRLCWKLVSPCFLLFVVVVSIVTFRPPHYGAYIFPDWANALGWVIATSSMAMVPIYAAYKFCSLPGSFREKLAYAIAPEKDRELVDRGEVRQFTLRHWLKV
Description: (§4) Human embryonic kidney cells (HEK293) stably transfected with the human DAT and SERT were used for both the uptake inhibition and transporter binding assays.[6] Cells were cultured in DMEM supplemented with heat-inactivated 10% fetal bovine serum (FBS), […], and 100 U/mL penicillin at 37 °C in a 5% CO2 humidified atmosphere. Geneticin (G418; 50 μg/mL) was added to maintain the selection process. Upon approximately 80% confluence, cells were washed with 5 mL of phosphate-buffered saline (PBS) and 1 mL of trypsin/EDTA was added. After 3 min, 9 mL of DMEM was added to stop cell trypsinization. If necessary, centrifugation was performed to pellet the cells. Cells were then resuspended, counted, and seeded onto poly-D-lysine coated (24 h/prior to the experiment) 96-well plates at a density of 0.36 million cells per well for the uptake inhibition assays.
(§5) Assays were performed as previously described.[8] On the test day, the medium was removed from the cell culture 96-well plates and immediately replaced with 200 μL of Krebs-HEPES-buffer (KHB; 10 mM HEPES, 120 mM NaCl, 3 mM KCl, 2 mM CaCl2·2H2O, 2 mM MgCl2·6H2O supplemented with 20 mM D-glucose; pH 7.3). To ensure equilibrated conditions, cells were incubated with different concentrations of the drugs in KHB at a final volume of 50 μL/well for 5 min (preincubation). The preincubation solution was removed, and cells were incubated with the tritiated compounds, 0.02 μM [^3H]MPP^+ for hDAT and 0.1 μM [^3H]5-HT for hSERT, together with various concentrations of the test drugs in KHB. The uptake incubation times were 3 min for hDAT and 1 min for hSERT. The reaction was stopped by rapid removal of the incubation solution and washout with ice-cold KHB. Cells were lysed with 1% sodium dodecyl sulfate, and lysates were subsequently transferred to vials containing scintillation fluid. Radioactivity was quantified with a beta-scintillation counter (PerkinElmer, Waltham, MA, USA). The uptake in the absence of the test drugs was normalized to 100%, and the uptake in the presence of various concentrations of cathinones was expressed as a percentage thereof. […] Four independent experiments carried out on triplicates were performed.
as §3

hSERT [3] = target: T1, hSERT; assay: Monoamine uptake inhibition, [3H]5-HT uptake at hSERT in transfected HEK293 cells; assay type: cell-based; settings: transfected HEK293 cells; mean ± SEM of four independent experiments; read-out: [3H]5-HT uptake at hSERT, IC50
Description: as §4, §5, §3

hDAT [4] = target: T2, hDAT; assay: Transporter binding, [3H]WIN 35,428 binding at hDAT (HEK293 membranes); settings: membranes of transfected HEK293 cells; mean ± SEM of four independent experiments; read-out: [3H]WIN 35,428 binding at hDAT, Ki
Description: as §1, §2, §3

[5] = Cytotoxicity in NGF-differentiated PC12 cells, WST-8 cell viability assay; assay type: cell-based; settings: rat, WST-8, 24 h exposure, mean ± SEM of 3–4 experiments, read-out: LC50 (approximated), cell viability
Description: Pheochromocytoma cells (PC12) cells were cultured in collagen-coated dishes in DMEM supplemented with heat-inactivated 5% FBS, 10% horse serum, 10 mM HEPES, 2 mM glutamine, 25 UI/mL penicillin, and 25 μg/mL streptomycin (maintenance medium) and grown at 37 °C in a humidified 5% CO2 atmosphere. Cell differentiation was performed as described[54] with minor modifications. In brief, cells were seeded (250.000 cells/well) onto 96-well plates in the maintenance medium, and after 24 h, the medium was changed to a differentiation medium containing 50 ng/mL NGF. After 24 h, neurite outgrowth was already apparent.
Treatments with different concentrations of the drug in DMEM were performed 48 h after cell differentiation. 10 μL of the tested drug was added per well, in triplicate, and cells were incubated for 24 h at 37 °C in a humidified 5% CO2 atmosphere. Thereafter, the medium was removed and immediately replaced with a maintenance medium. 10 μL of the CCK-8 Cell Counting Kit, based on 2-(2-methoxy-4-nitrophenyl)-3-(4-nitrophenyl)-5-(2,4-disulfophenyl)-2H-tetrazolium, monosodium salt (WST-8), was added per well and was incubated for 2 h at 37 °C in a humidified 5% CO2 atmosphere. This method has been defined as a good alternative to the 3-(4,5-dimethylthiazol-2-yl)-2,5-diphenyltetrazoliumbromide (MTT) assay.[63] Optical density was measured at 450 nm, using a microplate reader.
For in vitro assays, data were normalized with 100% defined as the mean of the technical replicates in the control group and expressed as mean ± SEM. Nonlinear regression was used to fit the different competition curves. Data were plotted and best fitted to a sigmoidal dose–response curve from which an IC50 or LC50 value was obtained. Transporter ratios were calculated as (1/DAT IC50: 1/SERT IC50). Although IC50 values at inhibiting 5-HT uptake for some compounds tested are expressed as >100 μM for clarity purposes, DAT/SERT ratios were calculated with the original raw data. The Cheng–Prusoff equation was used to calculate Ki (affinity): Ki = EC50/(1 + [radioligand concentration/Kd]).[65] The sample size for behavioral experiments was determined using GPower software. One-way or two-way ANOVA, and subsequent Tukey’s posthoc test, conducted only if F was significant, was used to determine the effects of cathinones on cytotoxicity, HLA, OF, and CPP experiments. The α error probability was set at 0.05 (p < 0.05). The exact size group for the behavioral experiments is shown in the corresponding figure legends. All statistic calculations were carried out using GraphPad Prism (GraphPad software, San Diego, CA, USA).

SMILES	CPP rewarding effect vs saline (Swiss CD-1 mice)	Ki (hSERT [1])	hDAT/hSERT inhibition ratio (hDAT [2]; 1/DAT IC50:1/SERT IC50, calculated with the original raw data)	IC50 (hDAT [2]; transfected HEK293 cells, mean ± SEM of four independent experiments, read-out: [3H]MPP+ uptake at hDAT, IC50)	IC50 (hSERT [3])	Ki (hDAT [4])	CC50 at 24 h [5]
CCCC(C(=O)c1ccccc1)N1CCCC1 (stereo not drawn) [α-PVP, alpha-pyrrolidinovalerophenone, reference compound]	induced rewarding effects	> 100 µM	3222	124 nM	> 100 µM	19 nM	–
CN[C@@H](C)Cc1ccccc1 [Meth, methamphetamine, reference compound]	–	–	–	–	–	–	8.73 mM
COC(=O)[C@H]1[C@@H](OC(=O)c2ccccc2)C[C@@H]2CC[C@H]1N2C [Cocaine, reference compound]	induced rewarding effects	–	–	–	–	–	–
